pEC50: −log10 of the molar value.
Biological target: T1, ΔF508-CFTR (Homo sapiens, UniProt P13569, DEL508-508)
T1 construct: expressed in transfected cells; host or cells: NIH3T3 mouse fibroblasts stably expressing ΔF508-CFTR for the optical, whole-cell and single-channel assays; Fisher rat epithelial (FRT) cells for Ussing chamber follow-up
Test: Assays for ΔF508-CFTR correction and potentiator properties (membrane potential optical and electrophysiological methods)
Assay type: cell-based
Conditions: CFTR modulation, % Efficacy
Excerpt: Assays for Detecting and Measuring ΔF508-CFTR Correction and Potentiator Properties of Compounds
A) Membrane Potential Optical Methods for Assaying ΔF508-CFTR Modulation Properties of Compounds
The optical membrane potential assay utilized voltage-sensitive FRET sensors described by Gonzalez and Tsien (See, Gonzales, J. E. and R. Y. Tsien (1995) “Voltage sensing by fluorescence resonance energy transfer in single cells” Biophys J 69 (4): 1272-80, and Gonzalez, J. E. and R. Y. Tsien (1997) “Improved indicators of cell membrane potential that use fluorescence resonance energy transfer” Chem Biol 4 (4): 269-77) in combination with instrumentation for measuring fluorescence changes such as the Voltage/Ion Probe Reader (VIPR) (See, Gonzalez, J. E., K. Oades, et al. (1999) “Cell-based assays and instrumentation for screening ion-channel targets” Drug Discov Today 4 (9): 431-439).
These voltage sensitive assays are based on the change in fluorescence resonant energy transfer (FRET) between the membrane-soluble, voltage-sensitive dye, DiSBAC2 (3), and a fluorescent phospholipid, CC2-DMPE, which is attached to the outer leaflet of the plasma membrane and acts as a FRET donor. Changes in membrane potential (Vm) cause the negatively charged DiSBAC2(3) to redistribute across the plasma membrane and the amount of energy transfer from CC2-DMPE changes accordingly. The changes in fluorescence emission were monitored using VIPR™ II, which is an integrated liquid handler and fluorescent detector designed to conduct cell-based screens in 96- or 384-well microtiter plates.
To identify small molecules that correct the trafficking defect associated with ΔF508-CFTR; a single-addition HTS assay format was developed. The cells were incubated in serum-free medium for 16 hrs at 37° C. in the presence or absence (negative control) of test compound. As a positive control, cells plated in 384-well plates were incubated for 16 hrs at 27° C. to “temperature-correct” ΔF508-CFTR. The cells were subsequently rinsed 3× with Krebs Ringers solution and loaded with the voltage-sensitive dyes. To activate ΔF508-CFTR, […] and the CFTR potentiator, genistein ([…]), were added along with Cl^−-free medium to each well. The addition of Cl^−-free medium promoted Cl^− efflux in response to ΔF508-CFTR activation and the resulting membrane depolarization was optically monitored using the FRET-based voltage-sensor dyes.
To identify potentiators of ΔF508-CFTR, a double-addition HTS assay format was developed. During the first addition, a Cl^−-free medium with or without test compound was added to each well. After 22 sec, a second addition of Cl^−-free medium containing 2-10 µM forskolin was added to activate ΔF508-CFTR. The extracellular Cl^− concentration following both additions was 28 mM, which promoted Cl^− efflux in response to ΔF508-CFTR activation and the resulting membrane depolarization was optically monitored using the FRET-based voltage-sensor dyes.
• Bath Solution #1: (in mM) NaCl 160, KCl 4.5, CaCl2 2, MgCl2 1, HEPES 10, pH 7.4 with NaOH. • Chloride-free bath solution: Chloride salts in Bath Solution #1 are substituted with gluconate salts. • CC2-DMPE: Prepared as a 10 mM stock solution in DMSO and stored at −20° C. • DiSBAC2(3): Prepared as a 10 mM stock in DMSO and stored at −20° C. Cell Culture
NIH3T3 mouse fibroblasts stably expressing ΔF508-CFTR are used for optical measurements of membrane potential. The cells are maintained at 37° C. in 5% CO2 and 90% humidity in Dulbecco's modified Eagle's medium supplemented with 2 mM glutamine, 10% fetal bovine serum, 1×NEAA, β-ME, 1×pen/strep, and 25 mM HEPES in 175 cm^2 culture flasks. For all optical assays, the cells were seeded at 30,000/well in 384-well matrigel-coated plates and cultured for 2 hrs at 37° C. before culturing at 27° C. for 24 hrs. for the potentiator assay. For the correction assays, the cells are cultured at 27° C. or 37° C. with and without compounds for 16-24 hours.

T1 sequence (P13569 with tags, fused parts or gaps DEL508-508): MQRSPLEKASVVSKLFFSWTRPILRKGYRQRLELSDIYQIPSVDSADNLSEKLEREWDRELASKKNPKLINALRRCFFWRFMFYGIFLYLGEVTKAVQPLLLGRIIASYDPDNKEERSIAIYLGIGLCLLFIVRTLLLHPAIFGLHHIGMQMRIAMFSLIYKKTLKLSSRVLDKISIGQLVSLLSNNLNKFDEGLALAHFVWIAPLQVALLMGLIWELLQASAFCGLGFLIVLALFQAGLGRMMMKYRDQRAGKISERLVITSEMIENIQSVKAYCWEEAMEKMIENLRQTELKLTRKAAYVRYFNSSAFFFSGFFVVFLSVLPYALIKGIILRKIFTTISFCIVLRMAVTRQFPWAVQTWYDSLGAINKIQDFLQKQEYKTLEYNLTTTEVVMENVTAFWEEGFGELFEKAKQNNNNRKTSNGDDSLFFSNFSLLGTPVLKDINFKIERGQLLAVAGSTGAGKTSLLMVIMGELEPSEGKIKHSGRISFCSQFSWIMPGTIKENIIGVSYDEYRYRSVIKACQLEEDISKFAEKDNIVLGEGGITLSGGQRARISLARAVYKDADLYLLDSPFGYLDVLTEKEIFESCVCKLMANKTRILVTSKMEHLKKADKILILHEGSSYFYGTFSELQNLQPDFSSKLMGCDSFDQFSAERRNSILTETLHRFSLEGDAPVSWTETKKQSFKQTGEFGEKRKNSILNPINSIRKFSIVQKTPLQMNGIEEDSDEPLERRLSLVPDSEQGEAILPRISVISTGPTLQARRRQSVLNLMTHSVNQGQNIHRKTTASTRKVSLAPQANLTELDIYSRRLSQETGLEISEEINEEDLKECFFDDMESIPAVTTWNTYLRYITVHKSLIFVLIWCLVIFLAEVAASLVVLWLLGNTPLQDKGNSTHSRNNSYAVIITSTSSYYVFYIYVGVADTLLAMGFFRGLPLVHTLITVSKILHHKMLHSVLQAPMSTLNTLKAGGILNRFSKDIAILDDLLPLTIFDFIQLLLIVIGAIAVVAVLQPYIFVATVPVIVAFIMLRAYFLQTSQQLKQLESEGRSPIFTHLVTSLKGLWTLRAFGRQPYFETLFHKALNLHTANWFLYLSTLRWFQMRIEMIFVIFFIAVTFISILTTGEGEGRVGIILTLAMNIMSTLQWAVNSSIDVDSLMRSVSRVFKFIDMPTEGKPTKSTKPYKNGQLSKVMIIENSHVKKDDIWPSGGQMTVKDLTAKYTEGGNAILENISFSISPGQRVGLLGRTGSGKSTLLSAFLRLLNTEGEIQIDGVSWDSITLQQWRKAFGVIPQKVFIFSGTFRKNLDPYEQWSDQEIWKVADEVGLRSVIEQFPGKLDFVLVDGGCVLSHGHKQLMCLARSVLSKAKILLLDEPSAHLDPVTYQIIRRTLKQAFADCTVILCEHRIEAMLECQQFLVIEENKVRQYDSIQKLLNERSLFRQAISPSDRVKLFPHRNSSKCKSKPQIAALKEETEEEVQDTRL

% Activity	SMILES
+++ (“+++” means >100%)	CCC(C(=O)Nc1ncc(Cc2ccccc2Cl)s1)c1ccccc1 (stereo not shown) [compound 97]
++ (“++” means between 25% to 100%)	CCC(C)C(C(=O)Nc1ncc(Cc2ccccc2)s1)c1ccccc1 (stereo not shown) [compound 98]
+++ (“+++” means >100%)	CCC(C)C(C(=O)Nc1ncc(Cc2ccccc2Cl)s1)c1ccccc1 (stereo not shown) [compound 99]
++ (“++” means between 25% to 100%)	CCC(C)C(C(=O)Nc1ncc(Cc2ccccc2)o1)c1ccccc1 (stereo not shown) [compound 100]
++ (“++” means between 25% to 100%)	O=C(Nc1ncc(Cc2ccccc2)s1)C(c1ccccc1)C1CCCC1 (stereo not shown) [compound 101]
+++ (“+++” means >100%)	O=C(Nc1ncc(Cc2ccccc2Cl)s1)C(c1ccccc1)C1CCCC1 (stereo not shown) [compound 102]
+++ (“+++” means >100%)	CC(C)C(C(=O)Nc1ncc(Cc2ccccc2Cl)s1)c1ccccc1 (stereo not shown) [compound 103]
++ (“++” means between 25% to 100%)	O=C(Nc1nc(-c2ccccc2)c(-c2ccccc2)s1)c1ccccc1Cl [compound 104]
+++ (“+++” means >100%)	COc1cccc(C(=O)Nc2nc(-c3ccccc3)c(-c3ccccc3)s2)c1 [compound 105]
++ (“++” means between 25% to 100%)	O=C(Nc1nc(-c2ccccc2)c(-c2ccccc2)s1)c1cccc(Cl)c1 [compound 106]
+++ (“+++” means >100%)	O=C(Cc1ccccc1)Nc1nc(-c2ccccc2)c(-c2ccccc2)s1 [compound 107]
++ (“++” means between 25% to 100%)	CCCC(=O)Nc1nc(-c2ccccc2)c(-c2ccccc2)s1 [compound 108]
++ (“++” means between 25% to 100%)	CC(C)C(=O)Nc1nc(-c2ccccc2)c(-c2ccccc2)s1 [compound 109]
+++ (“+++” means >100%)	CC(C)CC(=O)Nc1nc(-c2ccccc2)c(-c2ccccc2)s1 [compound 110]
+++ (“+++” means >100%)	O=C(Nc1nc(-c2ccccc2)c(-c2ccccc2)s1)C1CC1 [compound 111]
++ (“++” means between 25% to 100%)	CC(C)(C)C(=O)Nc1nc(-c2ccccc2)c(-c2ccccc2)s1 [compound 112]
++ (“++” means between 25% to 100%)	O=C(Nc1nc(-c2ccccc2)c(-c2ccccc2)s1)C1CCCC1 [compound 113]
++ (“++” means between 25% to 100%)	O=C(Nc1nc(-c2ccccc2)c(-c2ccccc2)s1)C1CCCCC1 [compound 114]
+++ (“+++” means >100%)	O=C(Nc1nc(-c2ccccc2)c(-c2ccccc2)s1)C1CCCO1 (stereo not shown) [compound 115]
++ (“++” means between 25% to 100%)	O=C(Nc1nc(-c2ccccc2)c(-c2ccccc2)s1)C1CCOC1 (stereo not shown) [compound 116]
+++ (“+++” means >100%)	O=C(Nc1ncc(Cc2ccc(Cl)cc2)s1)C(c1ccccc1)C1CCCCC1 (stereo not shown) [compound 117]
++ (“++” means between 25% to 100%)	O=C(Nc1ncc(Cc2ccc(Cl)cc2)s1)C(c1ccc(Cl)cc1)c1ccc(Cl)cc1 [compound 118]
+++ (“+++” means >100%)	CC(C(=O)Nc1ncc(Cc2ccc(Cl)cc2)s1)c1ccccc1 (stereo not shown) [compound 119]

Same assay, conditions: CFTR modulation, tested using the above methods

pEC50	SMILES
> 5.00	CCC(C(=O)Nc1ncc(Cc2ccccc2Cl)s1)c1ccccc1 (stereo not shown) [compound 97]
> 5.00	CCC(C)C(C(=O)Nc1ncc(Cc2ccccc2)s1)c1ccccc1 (stereo not shown) [compound 98]
> 5.00	CCC(C)C(C(=O)Nc1ncc(Cc2ccccc2Cl)s1)c1ccccc1 (stereo not shown) [compound 99]
4.60 to 5.00	CCC(C)C(C(=O)Nc1ncc(Cc2ccccc2)o1)c1ccccc1 (stereo not shown) [compound 100]
> 5.00	O=C(Nc1ncc(Cc2ccccc2)s1)C(c1ccccc1)C1CCCC1 (stereo not shown) [compound 101]
> 5.00	O=C(Nc1ncc(Cc2ccccc2Cl)s1)C(c1ccccc1)C1CCCC1 (stereo not shown) [compound 102]
> 5.00	CC(C)C(C(=O)Nc1ncc(Cc2ccccc2Cl)s1)c1ccccc1 (stereo not shown) [compound 103]
> 5.00	O=C(Nc1nc(-c2ccccc2)c(-c2ccccc2)s1)c1ccccc1Cl [compound 104]
> 5.00	COc1cccc(C(=O)Nc2nc(-c3ccccc3)c(-c3ccccc3)s2)c1 [compound 105]
> 5.00	O=C(Nc1nc(-c2ccccc2)c(-c2ccccc2)s1)c1cccc(Cl)c1 [compound 106]
> 5.00	O=C(Cc1ccccc1)Nc1nc(-c2ccccc2)c(-c2ccccc2)s1 [compound 107]
> 5.00	CCCC(=O)Nc1nc(-c2ccccc2)c(-c2ccccc2)s1 [compound 108]
> 5.00	CC(C)C(=O)Nc1nc(-c2ccccc2)c(-c2ccccc2)s1 [compound 109]
> 5.00	CC(C)CC(=O)Nc1nc(-c2ccccc2)c(-c2ccccc2)s1 [compound 110]
> 5.00	O=C(Nc1nc(-c2ccccc2)c(-c2ccccc2)s1)C1CC1 [compound 111]
> 5.00	CC(C)(C)C(=O)Nc1nc(-c2ccccc2)c(-c2ccccc2)s1 [compound 112]
> 5.00	O=C(Nc1nc(-c2ccccc2)c(-c2ccccc2)s1)C1CCCC1 [compound 113]
> 5.00	O=C(Nc1nc(-c2ccccc2)c(-c2ccccc2)s1)C1CCCCC1 [compound 114]
> 5.00	O=C(Nc1nc(-c2ccccc2)c(-c2ccccc2)s1)C1CCCO1 (stereo not shown) [compound 115]
> 5.00	O=C(Nc1nc(-c2ccccc2)c(-c2ccccc2)s1)C1CCOC1 (stereo not shown) [compound 116]
> 5.00	O=C(Nc1ncc(Cc2ccc(Cl)cc2)s1)C(c1ccccc1)C1CCCCC1 (stereo not shown) [compound 117]
> 5.00	O=C(Nc1ncc(Cc2ccc(Cl)cc2)s1)C(c1ccc(Cl)cc1)c1ccc(Cl)cc1 [compound 118]
> 5.00	CC(C(=O)Nc1ncc(Cc2ccc(Cl)cc2)s1)c1ccccc1 (stereo not shown) [compound 119]

Reference: US9249131B2, “Modulators of ATP-binding cassette transporters” (Vertex Pharmaceuticals Incorporated, priority 2003, dated 2016)
